Measured values published in US20150031102A1, “METHODS AND COMPOSITIONS FOR ENHANCED PRODUCTION OF BUTANOL BY CLOSTRIDIA” (Butrolix LLC, priority 2012, published 2015).

Assays:
C. acetobutylicum = assay: Calculated optimum peptide treatment level (polynomial curve fitted to butanol concentration vs treatment level per culture transfer); assay type: cell-based, Clostridium acetobutylicum; settings: for Calculated Optimum Peptide Level, Average / Average optimum peptide treatment level: average over culture transfers; for Average optimum peptide treatment level: both experiments for BP110517, single non-inhibitory experiment for BP1106213, fairly large standard deviations; for Calculated optimum peptide treatment level: first experiment using BP110517
Description: FIG. 20. Calculation of optimum peptide treatment level for transfer 13 of the first experiment that tested peptide BP110517 (SEQ ID NO:143) (see Table 1 for data). The four butanol concentration data points were graphed against the treatment levels and a polynomial curve was fitted to the graph.
The data from the sequential batch culture experiments treated with peptides BP110517 and BP1106213 were used to calculate optimum peptide treatment levels for enhanced butanol production by C. acetobutylicum. The calculation was made for each culture transfer using the butanol concentration results from control and experimental wells. The four data points for each culture transfer were graphed against the treatment levels, and a polynomial curve was fitted to the graph.
Then, the first derivative of the polynomial fitted to the data for each culture transfer was solved for “x”, which was the maximum point of the fitted polynomial curve (Table 46). The resulting peptide concentration value was assumed to be close to an optimum peptide treatment level that would result in enhanced butanol production.

[1] = system: C. acetobutylicum ATCC 824; assay: Germination and sequential batch cultures of C. acetobutylicum ATCC 824 grown at 37° C. (growth OD600, final pH, ceric ion reactive compounds); assay type: cell-based, Clostridium acetobutylicum
Experimental: Clostridium acetobutylicum ATCC 824 and C. beijerinckii NCIMB 8052 are available from several commercial microbial culture collections including the American Type Culture Collection (ATCC), Manassas, Va., USA. The strain grown at 30 C or 37 C in YE broth, which contained, per liter: 5.0 g yeast extract, 2.5 g casamino acids, 1.0 g L-asparagine, 0.5 g cysteine·HCl, 56 mg K2HPO4, 56 mg KH2PO4, 82 mg anhydrous MgSO4, 8 mg FeSO4.H2O, 6 mg MnSO4.H2O and 10 g glucose. Alternatively, strains were grown in YEPG broth, which was identical to YE expect that K2HPO4 and KH2PO4 were increased to 145 mg/L each and glucose was increased to 60 g/L. The pH of the media was adjusted to 7.2 using 45% KOH prior to sterilization by autoclaving. Media were solidified by addition of 1.5% Bacteriological Agar, Acumedia Manufacturers, Inc., Lansing, Mich. All cultures were grown in anaerobic conditions using the AnaeroPack System, Mitsubishi Gas Chemical Co., Inc., Japan, and GasPak EZ Gas Generating Sachets, Becton, Dickinson and Co., Sparks, Md. Spore stocks were kept at room temperature on agar-solidified media and were activated by suspending spores in 0.5 mL to 1.0 mL of medium followed by heating for 10 min at 80 C before inoculation into growth medium.
Growth of bacterial cultures was measured spectrophotometrically using optical density at 600 nm and pH of cell-free culture supernatants was measured using a hand-held Shindengen ISFET pH Meter KS501, Shendengen Electric Manufacturing Co., Ltd., Bannockburn, Ill.
Total alcohols in cell-free culture supernatants were measured using a modification of a colorimetric method based on ceric ammonium nitrate (Reid and Truelove, 1952). The ceric ion reagent was prepared by adding 1.3 mL of concentrated nitric acid to 40 mL of distilled water, then 10.96 g of ceric ammonium nitrate was dissolved in the dilute nitric acid solution and the solution was brought to a final volume of 50 mL. For the assay, […] of butanol standard or culture supernatant was mixed with […] distilled water in a disposable plastic cuvette followed by addition of […] of the ceric ion reagent. The sample was mixed by inverting the cuvette six times then exactly two minutes later the optical density at 500 nm wavelength was measured. The concentration of total alcohols was determined by comparison with a standard curve prepared by using butanol diluted in distilled water.
Spores of C. acetobutylicum ATCC 824 were germinated and grown overnight at 37 C under anaerobic conditions in YEPG medium that either contained 50 nM of peptide SEQ ID NO: 143 or no added peptide. After about 24 h of growth, […] of the untreated culture was transferred (transfer 1) to each of two flasks that contained 10 mL of YEPG with either no treatment or with 50 nM peptide SEQ ID NO: 143. At the same time, 10 μL of the culture that was germinated in the presence of peptide SEQ ID NO: 143 was also transferred to 10 mL of YEPG that contained 50 nM of peptide SEQ ID NO: 143. Thereafter, […] of each culture was transferred, at the same time, every 24-48 h to 10 mL of fresh YEPG that contained the same peptide treatment or no treatment. Each culture was stopped after 72 hours if incubation and optical density, pH and ceric ion reactive chemicals were measured. Sequential batch culturing was continued through 3 transfers at which point the untreated culture and the culture that was germinated and transferred in 50 nM of peptide were still growing, while the culture that was treated with peptide after germination had stopped growing (Table 15 and FIG. 7).

[2] = 50 nM added after germination, transfer 1, 72 h culture
[3] = 50 nM added after germination, transfer 2, 72 h culture
[4] = 50 nM added after germination, transfer 3, 72 h culture
[5] = 50-50 (germinated and transferred in 50 nM), transfer 1, 72 h culture
[6] = 50-50 (germinated and transferred in 50 nM), transfer 2, 72 h culture
[7] = 50-50 (germinated and transferred in 50 nM), transfer 3, 72 h culture
[8] = 50-50 (spores germinated in 50 nM peptide), transfer 0 (germinated culture), 72 h culture

With “ILILISG (Derived from Clostridium acetobutylicum SEQ ID NO: 110) [peptide SEQ ID NO: 144]” the “Calculated Optimum Peptide Level, Average” value (C. acetobutylicum; Expt. 1) was 46.2 ± 10.7 nM, the “Calculated Optimum Peptide Level, Average” value (C. acetobutylicum; Expt. 2) was 40.5 ± 3.8 nM and the “Average optimum peptide treatment level” value (C. acetobutylicum) was “mid to high 40”. The “Calculated Optimum Peptide Level” value (C. acetobutylicum; transfer 4, Expt. 1) was 46.0 nM, the “Calculated Optimum Peptide Level” value (C. acetobutylicum; transfer 4, Expt. 2) was “Inhib” and the “Calculated Optimum Peptide Level” value (C. acetobutylicum; transfer 7, Expt. 1) was 32.4 nM. For the same substance, the “Calculated Optimum Peptide Level” value (C. acetobutylicum; transfer 7, Expt. 2) was “Inhib”, the “Calculated Optimum Peptide Level” value (C. acetobutylicum; transfer 10, Expt. 1) was 49.0 nM and the “Calculated Optimum Peptide Level” value (C. acetobutylicum; transfer 10, Expt. 2) was “Inhib”. For the same substance, the “Calculated Optimum Peptide Level” value (C. acetobutylicum; transfer 13, Expt. 1) was “Inhib.^d”, the “Calculated Optimum Peptide Level” value (C. acetobutylicum; transfer 13, Expt. 2) was 43.2 nM and the “Calculated Optimum Peptide Level” value (C. acetobutylicum; transfer 16, Expt. 1) was 50.7 nM. For the same substance, the “Calculated Optimum Peptide Level” value (C. acetobutylicum; transfer 16, Expt. 2) was “Inhib”, the “Calculated Optimum Peptide Level” value (C. acetobutylicum; transfer 19, Expt. 1) was 36.8 nM and the “Calculated Optimum Peptide Level” value (C. acetobutylicum; transfer 19, Expt. 2) was “Inhib”. The “Calculated Optimum Peptide Level” value (C. acetobutylicum; transfer 22, Expt. 1) was 62.4 nM and the “Calculated Optimum Peptide Level” value (C. acetobutylicum; transfer 22, Expt. 2) was 37.8 nM.

In the case of SYPGWSW [peptide SEQ ID NO: 143], the “Calculated Optimum Peptide Level, Average” value (C. acetobutylicum; Expt. 1) is reported as 48.5 ± 9.9 nM, the “Calculated Optimum Peptide Level, Average” value (C. acetobutylicum; Expt. 2) is reported as 43.9 ± 31.6 nM and the “Average optimum peptide treatment level” value (C. acetobutylicum) is reported as “mid to high 40”. For the same substance, the “Calculated optimum peptide treatment level” value (C. acetobutylicum; transfer 4) was 38.7 nM, the “Calculated optimum peptide treatment level” value (C. acetobutylicum; transfer 22) was 62.9 nM and the “Calculated Optimum Peptide Level” value (C. acetobutylicum; transfer 4, Expt. 1) was 38.7 nM. For the same substance, the “Calculated Optimum Peptide Level” value (C. acetobutylicum; transfer 7, Expt. 1) was 37.3 nM, the “Calculated Optimum Peptide Level” value (C. acetobutylicum; transfer 7, Expt. 2) was 100 nM and the “Calculated Optimum Peptide Level” value (C. acetobutylicum; transfer 10, Expt. 1) was 56.6 nM. The “Calculated Optimum Peptide Level” value (C. acetobutylicum; transfer 10, Expt. 2) was 35.6 nM, the “Calculated Optimum Peptide Level” value (C. acetobutylicum; transfer 13, Expt. 1) was 40.4 nM and the “Calculated Optimum Peptide Level” value (C. acetobutylicum; transfer 13, Expt. 2) was 28.6 nM. For the same substance, the “Calculated Optimum Peptide Level” value (C. acetobutylicum; transfer 16, Expt. 1) was 51.2 nM, the “Calculated Optimum Peptide Level” value (C. acetobutylicum; transfer 16, Expt. 2) was 26.8 nM and the “Calculated Optimum Peptide Level” value (C. acetobutylicum; transfer 19, Expt. 1) was 52.5 nM. For the same substance, the “Calculated Optimum Peptide Level” value (C. acetobutylicum; transfer 19, Expt. 2) was 28.3 nM, the “Calculated Optimum Peptide Level” value (C. acetobutylicum; transfer 22, Expt. 1) was 62.9 nM and the “Final pH” value [1, 2] was 4.4. The “Optical density at 600 nm” value [1, 2] was 1.891, the “Optical density of ceric ion reactive compounds measured at 500 nm” value (shortened to “Optical density … at 500 nm”) [1, 2] was 0.116 and the “Final pH” value [1, 3] was 6.0. For the same substance, the “Optical density at 600 nm” value [1, 3] was 0.011, the “Optical density … at 500 nm” value [1, 3] was 0.000 and the “Final pH” value [1, 4] was 5.5. For the same substance, the “Optical density at 600 nm” value [1, 4] was 0.100, the “Optical density … at 500 nm” value [1, 4] was 0.001 and the “Growth in sequential transfers” value ([1]; 50 nM added after germination, untreated survived through 3 transfers) was “did not grow beyond the first transfer”. The “Culture degeneration in terms of production of total alcohols” value ([1]; 50 nM peptide treatment during germination and growth) was “prevented culture degeneration”, the “Final pH” value [1, 5] was 4.5 and the “Optical density at 600 nm” value [1, 5] was 1.715. For the same substance, the “Optical density … at 500 nm” value [1, 5] was 0.152, the “Final pH” value [1, 6] was 3.8 and the “Optical density at 600 nm” value [1, 6] was 1.858. The “Optical density … at 500 nm” value [1, 6] was −0.063, the “Final pH” value [1, 7] was 4.6 and the “Optical density at 600 nm” value [1, 7] was 1.485. The “Optical density … at 500 nm” value [1, 7] was 0.138, the “Final pH” value [1, 8] was 4.1 and the “Optical density at 600 nm” value [1, 8] was 2.121. For the same substance, the “Optical density … at 500 nm” value [1, 8] was 0.028.
